From publication PMC10815831, “Comparison of Nuclear Medicine Therapeutics Targeting PSMA among Alpha-Emitting Nuclides” (International Journal of Molecular Sciences, 2024)

Experiments:
[1] = target: T1, prostate specific membrane antigen (PSMA) (Homo sapiens, UniProt Q04609); assay: radioligand uptake in LNCaP (PSMA-high) cells, competition by unlabeled PSMA-617; PC3 (PSMA-low) as control; format: cell-based
T1 construct: gene FOLH1

[2] = target: T1, prostate specific membrane antigen (PSMA); assay: radioligand uptake in LNCaP (PSMA-high) cells, competition by unlabeled compound; PC3 (PSMA-low) as control; format: cell-based

T1 sequence (Q04609 whole entry): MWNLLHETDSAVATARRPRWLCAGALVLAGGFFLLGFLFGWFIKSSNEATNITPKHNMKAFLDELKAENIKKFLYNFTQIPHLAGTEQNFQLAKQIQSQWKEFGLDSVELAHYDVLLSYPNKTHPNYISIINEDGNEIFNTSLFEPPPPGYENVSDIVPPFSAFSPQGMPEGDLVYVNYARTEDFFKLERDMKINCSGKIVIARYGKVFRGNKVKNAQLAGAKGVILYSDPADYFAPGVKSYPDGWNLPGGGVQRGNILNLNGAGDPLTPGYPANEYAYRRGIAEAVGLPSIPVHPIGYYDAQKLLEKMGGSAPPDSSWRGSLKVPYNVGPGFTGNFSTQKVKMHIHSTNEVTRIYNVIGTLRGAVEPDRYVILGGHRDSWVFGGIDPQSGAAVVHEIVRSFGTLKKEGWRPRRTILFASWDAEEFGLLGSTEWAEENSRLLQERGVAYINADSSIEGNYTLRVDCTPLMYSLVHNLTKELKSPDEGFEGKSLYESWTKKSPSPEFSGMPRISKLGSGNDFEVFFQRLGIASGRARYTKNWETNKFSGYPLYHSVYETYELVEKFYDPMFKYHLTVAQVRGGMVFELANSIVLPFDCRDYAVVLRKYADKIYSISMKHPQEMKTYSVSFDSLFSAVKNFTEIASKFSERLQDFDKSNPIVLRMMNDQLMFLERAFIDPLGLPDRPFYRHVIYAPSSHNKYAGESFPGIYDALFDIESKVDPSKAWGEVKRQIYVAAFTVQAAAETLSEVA

## O=C([O-])CN1CCN(CC(=O)[O-])CCN(CC(=O)NCC2CCC(C(=O)NC(Cc3ccc4ccccc4c3)C(=O)NCCCC[C@H](NC(=O)N[C@@H](CCC(=O)O)C(=O)O)C(=O)O)CC2)CCN(CC(=O)[O-])CC1.[225Ac+3] (some centres unmarked) [225Ac-PSMA-617]
[1]
  IC50: 2.64 nM

## O=C(O)CC[C@H](NC(=O)N[C@@H](CCCCNC(=O)[C@@H](Cc1ccc2ccccc2c1)NC(=O)c1ccc(CNC(=O)[C@@H](CCC(=O)O)NC(=O)[C@@H](CCC(=O)O)NC(=O)Cc2ccc([211At])cc2)cc1)C(=O)O)C(=O)O [211At-PSMA-5]
[2]
  IC50: 0.32 nM
